In US20060293307A1, “Oxazolidinone derivatives as antimicrobials” (priority 2002, published 2006):
Converted amounts (≈) assume the structure as drawn. Where two headings read alike, the source gives them in different places.

How the values were obtained:
[1] = test system: M. avium intracellulare 4; test: MIC against MAC strains, agar dilution; assay type: cell-based; settings: S. No. 11 Mai-2, M. avium intracellulare 4, Middle Brook 7H10 + OADC, 37° C., 14-21 days
M. tuberculosis M-168 = test: MIC against M. tuberculosis strains, agar dilution; assay type: cell-based, Mycobacterium tuberculosis; settings: Middle Brook 7H10 + OADC, 37° C., 14-21 days
H. influenzae 1381 = test: MIC against Haemophilus strains; assay type: cell-based; settings: Haemophilus influenzae; s. No. 7, H. influenzae 1381; read-out: MIC
M. tuberculosis PC 4793 = test: MIC against M. tuberculosis strains, agar dilution; assay type: cell-based, Mycobacterium tuberculosis; settings: Middle Brook 7H10 + OADC, 37° C., 14-21 days
M. tuberculosis PC [2] = test: MIC against M. tuberculosis strains, agar dilution; assay type: cell-based, Mycobacterium tuberculosis; settings: S. No. 20 Mt-, Middle Brook 7H10 + OADC, 37° C., 14-21 days
H. influenzae 35056 = test: MIC against Haemophilus strains; assay type: cell-based; settings: Haemophilus influenzae; s. No. 1, H. influenzae 35056; read-out: MIC
M avium ATCC 700897 = test: MIC against MAC strains, agar dilution; assay type: cell-based, Mycobacterium avium; settings: S. No. 05 Ma-6, M avium ATCC 700897, Middle Brook 7H10 + OADC, 37° C., 14-21 days
M. tuberculosis H37Ra = test: MIC against M. tuberculosis strains, agar dilution; assay type: cell-based, Mycobacterium tuberculosis; settings: S. No. 24 Mt-, Middle Brook 7H10 + OADC, 37° C., 14-21 days
M. tuberculosis SGPGI = test: MIC against M. tuberculosis strains, agar dilution; assay type: cell-based, Mycobacterium tuberculosis; settings: S. No. 07 Mt-, Middle Brook 7H10 + OADC, 37° C., 14-21 days
M. tuberculosis M-66 = test: MIC against M. tuberculosis strains, agar dilution; assay type: cell-based, Mycobacterium tuberculosis; settings: Middle Brook 7H10 + OADC, 37° C., 14-21 days
139 = test: MIC, agar incorporation method; assay type: cell-based
Procedure, shortened: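 Doubling dilutions of compound in DMSO were incorporated into Mueller-Hinton agar; 10^4 CFU/spot inoculated from 0.5 McFarland suspensions and incubated 18 h (24 h for MRSN studies). MIC = lowest concentration without visible growth; valid only when ATCC reference strains gave in-range MICs.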

S. warnerii ST360 = test: MIC, agar incorporation method; assay type: cell-based
M. tuberculosis ATCC [3] = test: MIC against M. tuberculosis strains, agar dilution; assay type: cell-based, Mycobacterium tuberculosis; settings: S. No. 01.Mt-, Middle Brook 7H10 + OADC, 37° C., 14-21 days
[4] = test system: M. intracellulare ATCC 35761; test: MIC against MAC strains, agar dilution; assay type: cell-based; settings: S. No. 07 Mi-2, M. intracellulare ATCC 35761, Middle Brook 7H10 + OADC, 37° C., 14-21 days
H. influenzae 474 = test: MIC against Haemophilus strains; assay type: cell-based; settings: Haemophilus influenzae; s. No. 11, H. influenzae 474; read-out: MIC
M. tuberculosis V-3093 = test: MIC against M. tuberculosis strains, agar dilution; assay type: cell-based, Mycobacterium tuberculosis; settings: Middle Brook 7H10 + OADC, 37° C., 14-21 days
Moraxella M6 = test: MIC, agar incorporation method; assay type: cell-based
M. tuberculosis M-149 = test: MIC against M. tuberculosis strains, agar dilution; assay type: cell-based, Mycobacterium tuberculosis; settings: Middle Brook 7H10 + OADC, 37° C., 14-21 days
E. faecalis 5B (VRE) = test: MIC, agar incorporation method; assay type: cell-based; settings: Enterococcus faecalis
M. avium AIIMS = test: MIC against MAC strains, agar dilution; assay type: cell-based, Mycobacterium avium; settings: S. No. 04 Ma-4, M. avium AIIMS, Middle Brook 7H10 + OADC, 37° C., 14-21 days
M. tuberculosis PC [5] = test: MIC against M. tuberculosis strains, agar dilution; assay type: cell-based, Mycobacterium tuberculosis; settings: S. No. 18 Mt-, Middle Brook 7H10 + OADC, 37° C., 14-21 days
H. influenzae βIac = test: MIC against Haemophilus strains; assay type: cell-based; settings: Haemophilus influenzae; s. No. 3, H. influenzae βIac; read-out: MIC
[6] = test system: M. avium intracellulare 1211/96; test: MIC against MAC strains, agar dilution; assay type: cell-based; settings: S. No. 13 Mai-5, M. avium intracellulare 1211/96, Middle Brook 7H10 + OADC, 37° C., 14-21 days
M. tuberculosis ATCC [7] = test: MIC against M. tuberculosis strains, agar dilution; assay type: cell-based, Mycobacterium tuberculosis; settings: S. No. 03 Mt-, Middle Brook 7H10 + OADC, 37° C., 14-21 days
[8] = Mycobacterium avium, read-out: MIC
[9] = Mycobacterium tuberculosis, M168, S. No. 09 Mt-, read-out: MIC
[10] = Mycobacterium tuberculosis, PC4793, S. No. 23 Mt-, read-out: MIC
[11] = Mycobacterium tuberculosis, read-out: MIC
[12] = Mycobacterium tuberculosis, M66, S. No. 08 Mt-, read-out: MIC
[13] = Mycobacterium tuberculosis, V3093, S. No. 14 Mt-, read-out: MIC
[14] = Mycobacterium tuberculosis, M149, S. No. 15 Mt-, read-out: MIC

CC(=O)NC[C@H]1CN(c2ccc(N3CCN(c4ccc([N+](=O)[O-])s4)CC3)c(F)c2)C(=O)O1 [Compound No. 1, (S)—N-[[3-[3-Fluoro-4-[4-(5-nitro-2-thienyl)-1-piperazinyl]phenyl]-2-oxo-5-oxazolidinyl]methyl]acetamide]
MIC [1, 8]: < 0.125 µg/mL | MIC (M. tuberculosis M-168; [9]): 0.25 µg/mL | MIC (H. influenzae 1381): 8 µg/mL (≈ 17.3 µM) | MIC (M. tuberculosis PC 4793; [10]): > 32 µg/mL | MIC (M. tuberculosis PC [2]; [11]): 0.25 µg/mL | MIC (H. influenzae 35056): 8 µg/mL (≈ 17.3 µM) | MIC (M avium ATCC 700897; Mycobacterium avium, ATCC700897, read-out: MIC): < 0.123 µg/mL | MIC (M. tuberculosis H37Ra; [11]): ≤ 0.125 µg/mL | MIC (M. tuberculosis SGPGI; [11]): 0.5 µg/mL | MIC (M. tuberculosis M-66; [12]): > 32 µg/mL | MIC 139: 0.25 µg/mL (≈ 0.539 µM) | MIC (S. warnerii ST360): 0.125 µg/mL (≈ 0.27 µM) | MIC (M. tuberculosis ATCC [3]; [11]): ≤ 0.125 µg/mL | MIC ([4]; Mycobacterium intracellulare, ATCC35761, read-out: MIC): < 0.12 µg/mL | MIC (H. influenzae 474): 16 µg/mL (≈ 34.5 µM) | MIC (M. tuberculosis V-3093; [13]): ≤ 0.125 µg/mL | MIC (Moraxella M6; S. No. 60, Moraxella M6, read-out: MIC): 0.25 µg/mL (≈ 0.539 µM) | MIC (M. tuberculosis M-149; [14]): 0.25 µg/mL | MIC (E. faecalis 5B (VRE); S. No. 19, E. faecalis 5B (VRE), read-out: MIC): 0.25 µg/mL (≈ 0.539 µM) | MIC (M. avium AIIMS; [8]): 0.25 µg/mL | MIC (M. tuberculosis PC [5]; [11]): 0.25 µg/mL | MIC (H. influenzae βIac): 8 µg/mL (≈ 17.3 µM) | MIC [6, 8]: 8 µg/mL

CN[C@H](CC(C)C)C(=O)N[C@H]1C(=O)N[C@@H](CC(N)=O)C(=O)N[C@H]2C(=O)N[C@H]3C(=O)N[C@H](C(=O)N[C@H](C(=O)O)c4cc(O)cc(O)c4-c4cc3ccc4O)[C@H](O)c3ccc(c(Cl)c3)Oc3cc2cc(c3O[C@@H]2O[C@H](CO)[C@@H](O)[C@H](O)[C@H]2O[C@H]2C[C@](C)(N)[C@H](O)[C@H](C)O2)Oc2ccc(cc2Cl)[C@H]1O [Vancomycin, reference compound]
MIC 139: > 16 µg/mL | MIC (S. warnerii ST360): 0.5 µg/mL (≈ 0.345 µM) | MIC (Moraxella M6; Moraxella, M6): > 8 µg/mL | MIC (E. faecalis 5B (VRE); VRE): > 16 µg/mL

C[C@@H]1CN(c2c(F)c(N)c3c(=O)c(C(=O)O)cn(C4CC4)c3c2F)C[C@H](C)N1 [SPAR]
MIC [1]: 1.0 µg/mL | MIC (M. tuberculosis M-168; S. No. 09 Mt-): 2.0 µg/mL | MIC (M. tuberculosis PC 4793; S. No. 23 Mt-): 4.0 µg/mL | MIC (M. tuberculosis PC [2]): 8.0 µg/mL | MIC (M avium ATCC 700897): 2.0 µg/mL | MIC (M. tuberculosis H37Ra): ≦0.12 μg/ml | MIC (M. tuberculosis SGPGI): 4.0 µg/mL | MIC (M. tuberculosis M-66; S. No. 08 Mt-): 32 µg/mL | MIC (M. tuberculosis ATCC [3]): ≦0.125 μg/ml | MIC [4]: 2.0 µg/mL | MIC (M. tuberculosis V-3093; S. No. 14 Mt-): ≦0.125 μg/ml | MIC (M. tuberculosis M-149; S. No. 15 Mt-): 2.0 µg/mL | MIC (M. avium AIIMS): 8.0 µg/mL | MIC (M. tuberculosis PC [5]): ≦0.125 μg/ml | MIC (M. tuberculosis ATCC [7]): ≦0.125 μg/ml | MIC [6]: 4.0 µg/mL

CC(=O)NC[C@H]1CN(c2ccc(N3CCN(c4ccc(C=O)o4)CC3)c(F)c2)C(=O)O1 [Compound No. 3, (S)—N-[[3-[3-Fluoro-4-[4-(5-formyl-2-furyl)-1-piperazinyl]phenyl]-2-oxo-5-oxazolidinyl]methyl]acetamide]
MIC (H. influenzae 1381): 8 µg/mL (≈ 18.6 µM) | MIC (H. influenzae 35056): 4 µg/mL (≈ 9.29 µM) | MIC 139: 0.5 µg/mL (≈ 1.16 µM) | MIC (H. influenzae 474): 4 µg/mL (≈ 9.29 µM) | MIC (H. influenzae βIac): 4 µg/mL (≈ 9.29 µM)

CC(=O)NC[C@H]1CN(c2ccc(N3CCOCC3)c(F)c2)C(=O)O1 [Linezolid, reference compound]
MIC [1, 8]: 8 µg/mL | MIC (M. tuberculosis M-168; [9]): 4 µg/mL | MIC (H. influenzae 1381): 16 µg/mL (≈ 47.4 µM) | MIC (M. tuberculosis PC 4793; [10]): 8 µg/mL | MIC (M. tuberculosis PC [2]; [11]): 32 µg/mL | MIC (H. influenzae 35056): 8 µg/mL (≈ 23.7 µM) | MIC (M. tuberculosis H37Ra; [11]): 0.5 µg/mL | MIC (M. tuberculosis SGPGI; [11]): > 32 µg/mL | MIC (M. tuberculosis M-66; [12]): > 32 µg/mL | MIC 139: 1 µg/mL (≈ 2.96 µM) | MIC (S. warnerii ST360): < 0.5 µg/mL | MIC (M. tuberculosis ATCC [3]; [11]): 1 µg/mL | MIC (H. influenzae 474): 16 µg/mL (≈ 47.4 µM) | MIC (M. tuberculosis V-3093; [13]): 1 µg/mL | MIC (Moraxella M6; Moraxella, M6): 4 µg/mL (≈ 11.9 µM) | MIC (M. tuberculosis M-149; [14]): 32 µg/mL | MIC (E. faecalis 5B (VRE); VRE): 2 µg/mL (≈ 5.93 µM) | MIC (M. tuberculosis PC [5]; [11]): 0.5 µg/mL | MIC (H. influenzae βIac): 8 µg/mL (≈ 23.7 µM) | MIC (M. tuberculosis ATCC [7]; [11]): 1 µg/mL
